Source: US12338203B2 (TAISHO PHARMACEUTICAL CO., LTD., priority 2019, dated 2025)

Biological target: T1, human LPAR1 (Homo sapiens, UniProt Q92633)
T1 construct: expressed in transfected cells
Experiment: Test Example 1: antagonism against response of LPA-induced increase in intracellular Ca2+ concentration in RH7777 cells stably expressing human LPAR1
Assay type: cell-based
Conditions: RH7777 cells stably expressing human LPAR1; Fluo-4 fluorescence, FDSS6000; read-out: IC50 value (concentration producing 50% antagonism against response of LPA-induced increase in intracellular Ca2+ concentration) (converted)
In short: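 Ca2+ flux read at 540 nm emission (480 nm excitation) after LPA addition to human LPAR1-expressing RH7777 cells exposed to compound for 30 min, 37 °C, pH 7.4 HEPES-buffered HBSS. Response relative to no-compound control after basal subtraction; IC50 fitted from concentration–response.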

T1 sequence (Q92633 whole entry): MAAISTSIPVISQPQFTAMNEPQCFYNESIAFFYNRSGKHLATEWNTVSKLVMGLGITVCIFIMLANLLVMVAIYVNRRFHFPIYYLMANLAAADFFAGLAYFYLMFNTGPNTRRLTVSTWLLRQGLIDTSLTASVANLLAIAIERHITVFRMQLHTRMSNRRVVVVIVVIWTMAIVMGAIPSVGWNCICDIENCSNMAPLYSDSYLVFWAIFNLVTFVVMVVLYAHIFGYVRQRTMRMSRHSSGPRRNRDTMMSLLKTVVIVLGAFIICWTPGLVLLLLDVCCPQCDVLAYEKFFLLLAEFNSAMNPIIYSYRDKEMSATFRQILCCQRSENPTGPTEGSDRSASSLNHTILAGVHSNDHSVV

| IC50 [nM] | Compound |
| --- | --- |
| 1.99 | CCOc1cc(C(C)N(CCCCc2ccccc2)C(=O)NC2(C(=O)O)CC(F)(F)C2)cc(OCC)c1C(C)O (stereo not shown) [Example 1-34] |
| 28.7 | CCOc1cc([C@@H](C)N(CCCCc2ccccc2)C(=O)NCC2(C(=O)O)CC2)cc(OCC)c1C(C)=O [Example 1-144] |
| 0.712 | CCOc1cc(C(C)N(CCOCc2ccccc2)C(=O)NC2(C(=O)O)CC(OC)C2)c(C)c(OCC)c1C1CC1 (stereo not shown) [Example 5-201] |
| 7.13 | CCOc1cc(C(C)N(CCCCc2ccccc2)C(=O)NC2(C(=O)O)CC(F)(F)C2)cc(OCC)c1C(O)CC (stereo not shown) [Example 1-33] |
| 2.36 | COc1cc(C(C)N(CCOCc2ccccc2)C(=O)NC2(C(=O)O)CC(OC)C2)cc(OC)c1C1CC1 (stereo not shown) [Example 5-152] |
| 7.17 | CCOc1cc([C@@H](C)N(CCC2Cc3ccccc3C2)C(=O)NC2(C(=O)O)CC(OC)C2)cc(OCC)c1C(C)=O (stereo partly shown) [Example 4-23] |
| 2.63 | CCOc1cc(C(C)N(CCOCc2ccccc2)C(=O)NC2(C(=O)O)CC2)c(C)c(OCC)c1C(C)=O (stereo not shown) [Example 5-186] |
| 3.3 | CCOc1cc([C@@H](C)N(CCOCc2ccccc2)C(=O)NC2CCOCC2C(=O)O)c(Cl)c(OCC)c1C(C)O (single isomer, unassigned) [Example 5-69] |
| 7.62 | CCOc1cc([C@@H](C)N(CCC2Cc3ccccc3C2)C(=O)NC2(C(=O)O)CC(OC)C2)cc(OCC)c1C(C)=O (stereo partly shown) [Example 4-22] |
| 47.4 | CCOc1cc([C@@H](C)N(CCO[C@@H](C)c2ccccc2)C(=O)NC2(C(=O)O)CCOCC2)cc(OCC)c1C(C)O (single isomer, unassigned) [Example 4-143] |
| 34.7 | COc1cc(C(C)N(CCOCc2ccccc2)C(=O)NC2(C(=O)O)CCOCC2)cc(OC)c1C1CC1 (stereo not shown) [Example 5-173] |
| 34.6 | CCOc1cc([C@@H](C)N(CCC(F)(F)Cc2ccccc2)C(=O)NC2(C(=O)O)CC2)cc(OCC)c1C(C)=O [Example 4-79] |
| 3.12 | CCOc1cc(C(C)N(CCCCc2ccccc2)C(=O)NC2(C(=O)O)CC(C)(C)C2)cc(OCC)c1C(C)=O (stereo not shown) [Example 1-84] |
| 43.2 | CCOc1cc(C(=O)NC)cc(C(C)N(CCCCc2ccccc2)C(=O)NC2(C(=O)O)CC(F)(F)C2)c1 (stereo not shown) [Example 5-25] |
| 9.64 | CCOc1cc([C@@H](C)N(CCCCc2ccccc2)C(=O)N[C@H]2COC[C@H]2C(=O)O)cc(OCC)c1C(C)=O [Example 1-161] |
| 352 | CCOc1cc([C@@H](C)N(CCCCc2ccccc2)C(=O)NC(C(=O)O)C(C)O)cc(OCC)c1C (stereo partly shown) [Example 1-11] |
| 12.7 | CCOc1cc(C(C)N(CCCCc2ccccc2)C(=O)NC2(C(=O)O)Cc3ccccc3C2)cc(OCC)c1C (stereo not shown) [Example 1-122] |
| 1.95 | CCOc1cc([C@@H](C)N(CCCCc2ccccc2)C(=O)NC2(C(=O)O)CC(F)(F)C2)c(Cl)c(OCC)c1C(C)O (single isomer, unassigned) [Example 5-52] |
| 3.26 | COc1cc([C@@H](C)N(CCOCc2ccccc2)C(=O)NC2(C(=O)O)CC(F)(F)C2)cc(OC)c1C [Example 4-164] |
| 2.1 | CCOc1cc([C@@H](C)N(CCCCc2ccccc2)C(=O)NC2(C(=O)O)CC(OC)C2)c(Cl)c(OCC)c1C(C)=O (stereo partly shown) [Example 5-47] |

| IC50 [nM] | Compound |
| --- | --- |
| 14.5 | CCOc1cc([C@@H](C)N(CCCCc2ccccc2)C(=O)NC2CCC[C@@H]2C(=O)O)cc(OCC)c1C(C)=O (stereo partly shown) [Example 1-134] |
| 2.24 | CCOc1cc([C@@H](C)N(CCCCc2ccccc2)C(=O)NC2(C(=O)O)COC2)cc(OCC)c1C(C)=O [Example 1-149, 3-({[(1R)-1-(4-Acetyl-3,5-Diethoxyphenyl)Ethyl](4-Phenylbutyl) Carbamoyl}Amino) Oxetane-3-Carboxylic Acid] |
| 3.75 | CCOc1c(C(C)=O)ccc([C@@H](C)N(CCCC(F)(F)c2ccccc2)C(=O)NC2(C(=O)O)CCC2)c1C [Example 4-54] |
| 0.695 | CCOc1cc(C(C)N(CCOCc2ccccc2)C(=O)NC2(C(=O)O)CC(OCC)C2)c(Cl)c(OCC)c1C1CC1 (stereo not shown) [Example 5-221] |
| 79.7 | CCOc1cc(OCC)cc(C(C)N(CCCCc2ccccc2)C(=O)NC2(C(=O)O)Cc3ccccc3C2)c1 (stereo not shown) [Example 5-11] |
| 2.54 | CCOc1cc([C@@H](C)N(CCCCc2ccccc2)C(=O)NC2(C(=O)O)CC(F)(F)C2)c(Cl)c(OCC)c1C(C)O (single isomer, unassigned) [Example 5-53] |
| 6.76 | CCOc1cc(C(C)N(CCCCc2ccccc2)C(=O)NC2(C(=O)O)CC(F)(F)C2)cc(O)c1C(C)=O (stereo not shown) [Example 1-62, 1-({[1-(4-Acetyl-3-Ethoxy-5-Hydroxyphenyl)Ethyl](4-Phenylbutyl) Carbamoyl}Amino)-3,3-Difluorocyclobutane-1-Carboxylic Acid] |
| 23.6 | CCOc1cc([C@@H](C)N(CCC(F)(F)Cc2ccccc2)C(=O)NC2(C(=O)O)CC2)cc(OCC)c1C1CC1 [Example 4-80] |
| 0.919 | CCOc1cc(C(C)N(CCOCc2ccccc2)C(=O)NC2(C(=O)O)CC2)c(Cl)c(OCC)c1C1CC1 (stereo not shown) [Example 5-185] |
| 3.25 | C=C(C)c1c(OCC)cc(C(C)N(CCCCc2ccccc2)C(=O)NC2(C(=O)O)CC(F)(F)C2)cc1OCC (stereo not shown) [Example 1-54] |
| 46.4 | CCOc1cc([C@@H](C)N(CC(C)CCc2ccccc2)C(=O)NC2(C(=O)O)Cc3ccccc3C2)cc(OCC)c1C (stereo partly shown) [Example 4-39] |
| 272 | CCOc1cc(C(C)N(CCO[C@@H](C)c2ccccc2)C(=O)NC2(C(=O)OC)CC(OCC)C2)c(Cl)c(OCC)c1C(C)=O (stereo partly shown) [Example 6-5] |
| 6.48 | CCOc1cc([C@@H](C)N(CCCCc2ccccc2)C(=O)NC2CC(C(=O)O)C2)cc(OCC)c1C1CC1 (stereo partly shown) [Example 1-130] |
| 1670 | CCOc1cc(C(C)N(CCCCc2ccccc2)C(=O)NC2(C(=O)O)CCC(C(=O)O)CC2)cc(OCC)c1C (stereo not shown) [Example 1-120] |
| 15.1 | CCNc1cc([C@@H](C)N(CCCCc2ccccc2)C(=O)NC2(C(=O)O)CC(F)(F)C2)cc(O)c1C(C)=O [Example 5-112] |
| 126 | CCOc1cc([C@@H](C)N(CCc2ccc(Cl)cc2)C(=O)NC2(C(=O)O)CC(F)(F)C2)cc(OCC)c1C [Example 4-11] |
| 30.6 | CCOc1cc(C(C)N(CCCCCc2ccccc2)C(=O)NC2(C(=O)O)CC(F)(F)C2)cc(OCC)c1C (stereo not shown) [Example 4-37] |
| 10.3 | CCOc1c(C(C)(C)O)ccc([C@@H](C)N(CCCCc2ccccc2)C(=O)NC2(C(=O)O)CC(OCC)C2)c1C (stereo partly shown) [Example 1-104] |
| 7.11 | CCOc1cc([C@@H](C)N(CCO[C@@H](C)c2ccccc2)C(=O)NC2(C(=O)O)CC(OC)C2)cc(OCC)c1C(C)O (stereo partly shown) [Example 4-125] |
| 5.87 | CCOc1c(C(C)O)ccc([C@@H](C)N(CCCCc2ccccc2)C(=O)NC2(C(=O)O)CC(F)(F)C2)c1C (single isomer, unassigned) [Example 1-78] |

| IC50 [nM] | Compound |
| --- | --- |
| 12.7 | CCOc1cc([C@@H](C)N(CCCCc2ccccc2)C(=O)NC2(C(=O)O)Cc3ccccc3C2)cc(OCC)c1C [Example 1-123, 2-({[(1R)-1-(3,5-Diethoxy-4-Methylphenyl)Ethyl](4-Phenylbutyl) Carbamoyl}Amino)-2,3-Dihydro-1H-Indene-2-Carboxylic Acid] |
| 2.69 | CCOc1cc([C@@H](C)N(CCCC(F)(F)c2ccccc2)C(=O)N[C@]2(C(=O)O)C[C@@H](OC)C2)cc(OCC)c1C(C)=O [Example 4-64] |
| 7.07 | COc1cc(C(CO)N(CCCCc2ccccc2)C(=O)NC2(C(=O)O)CC(F)(F)C2)cc(OC)c1C (stereo not shown) [Example 3-6] |
| 0.516 | CCOc1cc([C@@H](C)N(CCOCc2ccccc2)C(=O)NC2(C(=O)O)CCOCC2)c(Cl)c(OCC)c1C(C)=O [Example 5-39] |
| 292 | CCOc1cc([C@@H](C)N(CCOCc2ccccc2)C(=O)NC2CC(C(=O)O)C2)c(Cl)c(OCC)c1C(C)=O (stereo partly shown) [Example 5-37] |
| 2.95 | COc1cc(C(C)N(CCOC(C)c2ccccc2)C(=O)NC2(C(=O)O)CCC2)c(C)c(OC)c1C1CC1 (stereo not shown) [Example 5-139] |
| 32.9 | CCOc1cc(C(C)N(CCCCc2ccccc2)C(=O)NC2CC(C(=O)O)C2)c(Cl)c(OCC)c1C(C)=O (stereo not shown) [Example 5-45] |
| 4.47 | CCOc1cc([C@@H](C)N(CCCC(F)(F)c2ccccc2)C(=O)NC2(C(=O)O)CC(F)(F)C2)cc(OCC)c1C1(O)CC1 [Example 4-57] |
| 1.99 | CCOc1cc(C(C)N(CCO[C@@H](C)c2ccccc2)C(=O)N[C@]2(C(=O)O)C[C@@H](OCC)C2)c(Cl)c(OCC)c1C(C)=O (stereo partly shown) [Example 5-218] |
| 3.11 | COc1cc(C(C)N(CCOCc2ccccc2)C(=O)NC2(C(=O)O)CC(F)(F)C2)c(Cl)c(OC)c1C(C)=O (stereo not shown) [Example 5-143] |
| 3.68 | CCOc1cc([C@@H](C)N(CCCC(F)(F)c2ccccc2)C(=O)NC2(C(=O)O)CCOCC2)cc(OCC)c1C(C)=O [Example 4-73] |
| 3.68 | CCOc1c(C(C)=O)ccc([C@@H](C)N(CCCCc2ccccc2)C(=O)NC2(C(=O)O)CCOCC2)c1C [Example 1-156] |
| 5.17 | CCOc1cc([C@@H](C)N(CCCCc2ccccc2)C(=O)NC2(C(=O)O)CCOCC2)cc(OCC)c1C(C)O (stereo partly drawn) [Example 1-152, 4-{[{(1R)-1-[3,5-Diethoxy-4-(1-Hydroxyethyl)Phenyl]Ethyl}(4-Phenylbutyl) Carbamoyl]Amino}Oxane-4-Carboxylic Acid] |
| 1.97 | CCOc1cc([C@@H](C)N(CCC(F)(F)Cc2ccccc2)C(=O)N[C@]2(C(=O)O)C[C@@H](OC)C2)cc(OCC)c1C1CC1 [Example 4-91] |
| 0.621 | CCOc1cc([C@@H](C)N(CCCCc2ccccc2)C(=O)NC2(C(=O)O)CCC2)cc(OCC)c1C(C)=O [Example 1-20] |
| 2.63 | CCOc1cc(C(C)N(CCCC(F)(F)c2ccccc2)C(=O)NC2(c3nn[nH]n3)CC2)cc(OCC)c1C(C)=O (stereo not shown) [Example 10-4] |
| 1.04 | CCOc1cc([C@@H](C)N(CCOCc2ccccc2)C(=O)NC2(C(=O)O)CC(F)(F)C2)c(Cl)c(OCC)c1C(C)O (single isomer, unassigned) [Example 5-56] |
| 3.47 | CCOc1cc([C@@H](C)N(CCO[C@@H](C)c2ccccc2Cl)C(=O)NC2(C(=O)O)CC(F)(F)C2)c(Cl)c(OCC)c1C(C)=O [Example 4-175] |
